Consider 14 compounds from PubChem BioAssay (NCI).

Among the test systems are K-562 leukemia; NCI-H226 lung; SK-MEL-2 melanoma; T-47D breast; M14 melanoma; NCI/ADR-RES ovarian; RPMI-8226 leukemia; HT29 colon; SF-295 CNS; SW-620 colon.
What all share (assay): DTP human tumour cell line panel, 48 h

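Exposure lasted 48 hours, with cells grown in 96-well plates and compounds tested at five concentrations. Definition used: TGI = concentration required for complete inhibition of growth.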

As for `COc1cccc2cc(C(=O)Nc3ccccc3)c(=N)oc12`, the TGI is > 100 µM in the experiment with K-562 leukemia; > 100 µM with NCI-H226 lung; > 100 µM in the experiment with SK-MEL-2 melanoma; > 31.4 µM with T-47D breast; > 100 µM in the experiment with M14 melanoma; > 100 µM with NCI/ADR-RES ovarian. Moreover, the TGI in the experiment with RPMI-8226 leukemia, in the experiment on HT29 colon, in the experiment on SF-295 CNS and in the experiment with SW-620 colon was > 100 µM each time.

Turning to `O=C(C/C(=N/O)C(F)(F)F)c1cccs1`, the TGI with K-562 leukemia, in the experiment with NCI-H226 lung, in the experiment on SK-MEL-2 melanoma, in the experiment with T-47D breast, with M14 melanoma and with NCI/ADR-RES ovarian was > 100 µM throughout. Moreover, the TGI in the experiment on RPMI-8226 leukemia, in the experiment on HT29 colon, with SF-295 CNS and in the experiment on SW-620 colon was > 100 µM in each case.

For the compound `O=[N+]([O-])/C=C(\CS(=O)(=O)c1ccccc1)c1ccc2c(c1)OCO2`, the TGI was > 100 µM in the experiment with K-562 leukemia; 84.5 µM in the experiment with NCI-H226 lung; > 100 µM with T-47D breast; 71.4 µM in the experiment with M14 melanoma; 49.2 µM in the experiment with NCI/ADR-RES ovarian; > 100 µM with RPMI-8226 leukemia. For the same compound, the total growth inhibition concentration (TGI) in the experiment on HT29 colon, in the experiment with SF-295 CNS and in the experiment with SW-620 colon was > 100 µM in each case.

In the case of `O=[N+]([O-])c1cc2ccc(N(CCO)CCO)nc2nc1N(CCO)CCO`, the TGI with K-562 leukemia, in the experiment with NCI-H226 lung, in the experiment with SK-MEL-2 melanoma, with T-47D breast, in the experiment with M14 melanoma and in the experiment on NCI/ADR-RES ovarian was > 100 µM in each case. Besides, the TGI in the experiment with RPMI-8226 leukemia, with HT29 colon, in the experiment on SF-295 CNS and in the experiment with SW-620 colon was > 100 µM throughout.

Take `COC(=O)[C@]1(c2cc3ccccc3[nH]2)CC2CN(C(=O)OCc3ccccc3)C1CC2=O` (some centres not stated): the TGI was 45.1 µM in the experiment with K-562 leukemia; 63.4 µM in the experiment with NCI-H226 lung; 38.2 µM in the experiment on SK-MEL-2 melanoma; 76.2 µM in the experiment on T-47D breast; 75.1 µM in the experiment on M14 melanoma; > 100 µM with NCI/ADR-RES ovarian. Moreover, the TGI in the experiment on RPMI-8226 leukemia is 38.9 µM; in the experiment with HT29 colon, 31.7 µM; in the experiment with SF-295 CNS, > 100 µM; in the experiment with SW-620 colon, > 100 µM.

On to `CN(C)CCOc1ccc(-c2c(Oc3ccccc3)c(=O)oc3ccccc23)cc1`, for which the TGI was determined as 23 µM with K-562 leukemia; 31.6 µM in the experiment on NCI-H226 lung; 28.9 µM with SK-MEL-2 melanoma; 44.1 µM with T-47D breast; 4.63 µM in the experiment with M14 melanoma; 25 µM in the experiment with NCI/ADR-RES ovarian. In addition, the TGI in the experiment with RPMI-8226 leukemia was 40.8 µM; in the experiment on HT29 colon it was 25.4 µM; with SF-295 CNS, 17.2 µM; in the experiment with SW-620 colon it was 23.8 µM.

Regarding `COC(=O)C1=C(O)CCCC(C2CCCCC(=O)C2C(=O)OC)=C1` (configuration not stated), the TGI with K-562 leukemia, in the experiment with NCI-H226 lung, in the experiment on SK-MEL-2 melanoma, in the experiment with T-47D breast, in the experiment on M14 melanoma and in the experiment with NCI/ADR-RES ovarian was > 100 µM throughout. The TGI with RPMI-8226 leukemia, in the experiment with HT29 colon, in the experiment with SF-295 CNS and in the experiment with SW-620 colon was > 100 µM each time.

As to `O=c1[nH]nc(Cc2ccccc2)n1/N=C/c1cccnc1`, the total growth inhibition concentration (TGI) in the experiment with K-562 leukemia, with NCI-H226 lung, in the experiment with T-47D breast, in the experiment with M14 melanoma, with NCI/ADR-RES ovarian and with RPMI-8226 leukemia was > 100 µM throughout. Besides, the TGI in the experiment with HT29 colon, in the experiment on SF-295 CNS and with SW-620 colon was > 100 µM throughout.

`Cn1c2ccccc2c2cc(N3CCCC3)c3c(c21)C(=O)N(c1ccccc1)C3=O`: the TGI with K-562 leukemia, with NCI-H226 lung, in the experiment on T-47D breast, with M14 melanoma, in the experiment on NCI/ADR-RES ovarian and in the experiment on RPMI-8226 leukemia was > 100 µM in each case. For the same compound, the TGI in the experiment with HT29 colon, in the experiment with SF-295 CNS and in the experiment on SW-620 colon was > 100 µM in each case.

For `COC(=O)c1c2c(cc3c1CC1(Cc4cc5c(c(C(C)=O)c4C1)CCCC5)C3)CCCC2` (configuration not stated), the TGI is > 100 µM in the experiment with K-562 leukemia; > 100 µM in the experiment with NCI-H226 lung; 44.5 µM with SK-MEL-2 melanoma; > 100 µM in the experiment on T-47D breast; > 100 µM in the experiment on M14 melanoma; > 100 µM in the experiment on NCI/ADR-RES ovarian. In addition, the values for the TGI in the experiment on RPMI-8226 leukemia, in the experiment with HT29 colon and in the experiment on SF-295 CNS were 87.5 µM, > 100 µM and > 100 µM, respectively.

`CC1(C)C2CCC1C(=O)[C@@]1(C=CC(=O)CC1)C2` (some centres not stated): the TGI with K-562 leukemia, with NCI-H226 lung, in the experiment with T-47D breast, with M14 melanoma, in the experiment on NCI/ADR-RES ovarian and with RPMI-8226 leukemia was > 100 µM throughout. For the same compound, the TGI with HT29 colon, in the experiment with SF-295 CNS and in the experiment with SW-620 colon was > 100 µM in each case.

For the compound `CCCCSC1=N/C(=C\c2ccc(N(C)C)cc2)C(=O)N1`, the TGI with K-562 leukemia was > 100 µM; in the experiment on NCI-H226 lung it was 54.2 µM; in the experiment on T-47D breast it was 81.8 µM; in the experiment on M14 melanoma, > 100 µM; with NCI/ADR-RES ovarian, > 100 µM; in the experiment on RPMI-8226 leukemia, 50.2 µM. Besides, the TGI in the experiment on HT29 colon is 36.8 µM; with SF-295 CNS, > 100 µM; in the experiment on SW-620 colon, > 100 µM.

For `CCN(CC)c1ccc(/C=C2\CCc3ccc([N+](=O)[O-])cc3C2=O)cc1`, the TGI with K-562 leukemia was > 100 µM; in the experiment with NCI-H226 lung it was > 100 µM; with T-47D breast, > 100 µM; in the experiment with M14 melanoma, > 100 µM; in the experiment with NCI/ADR-RES ovarian it was > 30.7 µM; in the experiment on RPMI-8226 leukemia it was > 100 µM. Also, the TGI in the experiment with HT29 colon was 2.21 µM; in the experiment with SF-295 CNS it was 7.55 µM; with SW-620 colon, > 100 µM.

For `COC(=O)C1=C(C(=O)OC)C(N(C)C)C(C(=O)OC)=C(C(=O)OC)S1`, the TGI in the experiment with K-562 leukemia, in the experiment with NCI-H226 lung, with SK-MEL-2 melanoma, with T-47D breast, with M14 melanoma and with NCI/ADR-RES ovarian was > 100 µM in each case. In addition, the TGI with RPMI-8226 leukemia, with SF-295 CNS and in the experiment with SW-620 colon was > 100 µM in each case.

As usually defined, the TGI is the concentration at which net growth stops. A high value points to less potent growth arrest.
